From ChEMBL document CHEMBL5233247, “Recent advances in DNA gyrase-targeted antimicrobial agents” (Eur J Med Chem, 2020)
Values after ≈ are worked out from the molar mass of the structure shown. Values joined by “and” are separate entries in the source; they are usually repeats but may differ in a detail not shown here. Identical values can stand only once. Values belong to the compound of their own block, whether it stands above or below them.

How the values were obtained:
Escherichia coli = test: Antibacterial activity against Escherichia coli; format: functional
Bacillus subtilis [1] = test: Antibacterial activity against Bacillus subtilis; format: functional
Micrococcus luteus [2] = test: Antibacterial activity against Micrococcus luteus; format: functional
Salmonella typhimurium = test: Antibacterial activity against Salmonella typhimurium; format: functional, Salmonella enterica subsp. enterica serovar Typhimurium; conditions: Salmonella enterica
Staphylococcus aureus [3] = test: Antimicrobial activity against Staphylococcus aureus ATCC 4163 incubated for by the twofold serial agar dilution technique; format: functional
Staphylococcus aureus [4] = test: Antimicrobial activity against Staphylococcus aureus ATCC 25923 incubated for by the twofold serial agar dilution technique; format: functional
Staphylococcus aureus [5] = test: Antimicrobial activity against Staphylococcus aureus ATCC 29213 incubated for by the twofold serial agar dilution technique; format: functional
Staphylococcus aureus [6] = test: Antimicrobial activity against Staphylococcus aureus ATCC 6538 incubated for by the twofold serial agar dilution technique; format: functional
Bacillus cereus = test: Antimicrobial activity against Bacillus cereus ATCC 11778 incubated for by the twofold serial agar dilution technique; format: functional
[7] = test system: Staphylococcus epidermidis; test: Antimicrobial activity against Staphylococcus epidermidis ATCC 12228 incubated for by the twofold serial agar dilution technique; format: functional
Bacillus subtilis [8] = test: Antimicrobial activity against Bacillus subtilis ATCC 6633 incubated for by the twofold serial agar dilution technique; format: functional
Micrococcus luteus [9] = test: Antimicrobial activity against Micrococcus luteus ATCC 9341 incubated for by the twofold serial agar dilution technique; format: functional
Micrococcus luteus [10] = test: Antimicrobial activity against Micrococcus luteus ATCC 10240 incubated for by the twofold serial agar dilution technique; format: functional
Staphylococcus aureus [11] = test: Antimicrobial activity against methicillin-resistant Staphylococcus aureus MTCC 96; format: functional
Enterococcus faecalis [12] = test: Antimicrobial activity against vancomycin-sensitive Enterococcus faecalis assessed as inhibition of bacterial growth by CLSI broth micro plate assay; format: functional
Enterococcus faecalis [13] = test: Antimicrobial activity against vancomycin-resistant Enterococcus faecalis assessed as inhibition of bacterial growth by CLSI broth micro plate assay; format: functional
Staphylococcus aureus [14] = test: Antimicrobial activity against methicillin-sensitive Staphylococcus aureus assessed as inhibition of bacterial growth by CLSI broth micro plate assay; format: functional
Staphylococcus aureus [15] = test: Antimicrobial activity against methicillin-resistant Staphylococcus aureus assessed as inhibition of bacterial growth by CLSI broth micro plate assay; format: functional
DNA gyrase = DNA gyrase (Staphylococcus aureus, UniProt P0A0K8+P20831); test: Inhibition of Staphylococcus aureus DNA gyrase assessed as relaxation of pBR322 DNA by supercoiling assay; format: protein-complex assay

MIC (Escherichia coli): 0.14 µM (≈ 0.125 µg/mL)
MIC (Bacillus subtilis [1]): 0.28 µM (≈ 0.251 µg/mL)
MIC (Micrococcus luteus [2]): 0.238 µM and 0.112 µM
MIC (Salmonella typhimurium): 0.07 µM (≈ 0.0626 µg/mL)
Compound: COc1c(NC(=O)c2ccc(NC(=O)c3ccc(NC(=O)[C@H](CC#N)NC(=O)c4ccc(NC(=O)/C(C)=C/c5ccc(C(F)(F)F)cc5)cc4)cc3)c(OC)c2O)ccc(C(=O)O)c1O

MIC (Staphylococcus aureus [3]): 6.25 µg/mL (≈ 17.2 µM)
MIC (Staphylococcus aureus [4]): 6.25 µg/mL (≈ 17.2 µM)
MIC (Staphylococcus aureus [5]): 6.25 µg/mL (≈ 17.2 µM)
MIC (Staphylococcus aureus [6]): 6.25 µg/mL (≈ 17.2 µM)
MIC (Bacillus cereus): 6.25 µg/mL (≈ 17.2 µM)
MIC [7]: 12.5 µg/mL (≈ 34.3 µM)
MIC (Bacillus subtilis [8]): 12.5 µg/mL (≈ 34.3 µM)
MIC (Micrococcus luteus [9]): 6.25 µg/mL (≈ 17.2 µM)
MIC (Micrococcus luteus [10]): 6.25 µg/mL (≈ 17.2 µM)
Compound: S=C(NCCc1c[nH]c2ccccc12)Nc1ccc(Cl)c(Cl)c1

Compound: Cc1ccc(C(=O)Nc2ccc(NC(=O)CCC(=O)NN)cc2)o1
MIC (Staphylococcus aureus [11]): 18.9 µM (≈ 6.25 µg/mL)

Compound: COc1cc2c(cc1OCCCC(=O)Nc1cc(NC(=O)c3ccc4sccc4c3)n(C)c1)N=C[C@@H]1CCCN1C2=O
MIC (Enterococcus faecalis [12]): 0.5 µg/mL (≈ 0.854 µM)
MIC (Enterococcus faecalis [13]): 0.5 µg/mL (≈ 0.854 µM)
MIC (Staphylococcus aureus [14]): 0.5 µg/mL (≈ 0.854 µM)
MIC (Staphylococcus aureus [15]): 0.5 µg/mL (≈ 0.854 µM)
IC50 (DNA gyrase): 1.62 µM
